Assay results: patent EP0052910A1, “Derivative of N-acetilcysteine having therapeutical activity, process for its preparation and related pharmaceutical compositions” (Real S.a.s. di Alberto Reiner & C., priority 1980, dated 1982)

Assays:
[1] = tested on: rats of male sex, of the Sprague-Dawley strain; test: Anti-inflammatory activity in the kaolin test; type: in vivo; settings: 10% suspension of kaolin injected, diameter of the tibio-tarsal articulation
Description: a) Anti-inflammatory activity in the kaolin test. For each compound 16 rats of male sex, of the Sprague-Dawley strain and of 200-250 g of body weight, were used. The rats were divided into four groups each comprising four rats. All.-the animals were injected with a 10% suspension of kaolin. The first group was used as the control, whereas the other three groups were administered with doses respectively of 50,75 and 100 mg/kg. The measurements of the diamzrers of the articulation were effected one hour after the kaolin injection and then every 24 hours.
The inoculation of kaolin caused an increase of the tibio-tarsal articulation which has been partially limited by the treatment with the test compound.

[2] = tested on: male rats, of the Sprague-Dawley strain; test: Anti-inflammatory activity in the egg white test; type: in vivo; settings: orally, 0.1 ml of egg white in the rear paw, measured 3 and 4 hours later
Description: For each compound 16 male rats, of the Sprague-Dawley strain and weighing 300 g, were used. The animals were divided in four groups each comprising four rats. The first group served as a control, whereas the other three gropus were orally administered, with a 30 minute interval, with two doses of 50,75 and 100 mg/kg of the test compound. The last administration was immediately followed by the inoculation of 0.1 ml of egg white in the rear paw of all the animals, including the controls. The measurements of the diameters of the articulations were effected 3 and 4 hours later.

Substance: p-isobutylphenylpropionoylthio-N-acetylcysteine
- Anti-inflammatory activity % ([1]; dose 75 mg/kg): 12%
- Anti-inflammatory activity % ([1]; dose 100 mg/kg): 26%
- Anti-inflammatory activity % ([2]; two doses of 75 mg/kg with a 30 minute interval): 12%
- Anti-inflammatory activity % ([2]; two doses of 100 mg/kg with a 30 minute interval): 20%
